Columns and labels:
[1] = test system: motor neurons of the nucleus of the facial nerve; assay: axotomy of the facial nerve in new-born rats, count of motor neurons of the facial nucleus; assay type: in vivo, rat; conditions: axotomized new-born rats; dose between 3 and 100 mg/kg according to the administration route; compared with the nerve which is not sectioned
Experimental: An axotomy of the facial nerve is performed on new-born young rats of 2-3 days old. The animals receive the cholest-4-en-3-one oxime 4 hours before the unilateral section of the nerve then daily for 5 days by sub-cutaneous route. Seven days after the section of the nerve, the animals are anaesthetized, then fixed by intra-cardial perfusion of paraformaldehyde. The brain is then removed and placed in paraffin. The histological analysis of compound sections of 7 μm of the nucleus of the facial nerve, stained with cresyl violet, allows the number of motor neurons of the intact side as well as of the side of the nerve which has been sectioned to be counted (Casanovas et al., Prevention by lamotrigine, MK-801 and N omega-nitro-L-arginine methyl ester of motoneuron cell death after neonatal axotomy, Neuroscience, 1996, 71, 313-325).

rat motor neurons = assay: in vitro model of trophic deprivation of rat motor neurons (survival, calcein fluorescence); assay type: cell-based; conditions: 3 days in basal medium, compared with medium supplemented with neurotrophic factors, ratio > 0 = positive effect
Experimental: The spinal cord of E14 rat embryos is dissected and the ventral part is isolated by trituration after trypsination. […] The cells are centrifuged on a density gradient. The motor neurons are enriched in the fraction of the large cells (the least dense). The cells of this fraction are incubated with an anti-p75 antibody, a surface antigen present on the motor neurons. Secondary antibodies coupled with magnetic balls are added and the mixture of cells is passed through a column in a magnet (Arce et al., 1999). Only the motor neurons are retained: their purity is of the order of 90%.
The motor neurons are inoculated at low density in culture wells on a substrate of polyornithine-laminin in a neurobasal medium supplemented according to Raoul et al., 1999, Programmed cell death of embryonic motor neurons triggered through the Fas death receptor. […] Negative controls (absence of trophic factors) and positive controls (in the presence of BDNF (Brain-Derived Neurotrophic Factor) at 1 ng/ml, GDNF (Glial-Derived Neurotrophic Factor) at 1 ng/ml and CNTF (Ciliary Neurotrophic Factor) at 10 ng/ml, marketed by the American company PEPROTECH, Inc. and the Sigma-Aldrich company, are included in each series.
The compounds to be tested are added 60 minutes after the inoculation and the cultures are maintained at 37° C. under 5% CO2 for 3 days.
After 3 days, the survival is evaluated by a fluorescence measurement after incubation of the cells in the presence of calcein which becomes fluorescent in the living cells.
The activity of the compounds to be tested was evaluated according to their capacity to prevent the death of the motor neurons when they are added to the neurobasal medium compared with the survival of the motor neurons in medium supplemented with neurotrophic factors.
This survival rate is expressed by a number, the ratio.

[2] = toxicological study in mice; assay type: in vivo; conditions: oral, sub-cutaneous, intra-peritoneal and intravenous routes, up to 300 mg/kg/day, daily up to 28 days
[3] = test system: striatal neurons expressing truncated mutated huntingtin; assay: protection of striatal neurons from death induced by overexpression of a mutated form of huntingtin; assay type: cell-based; conditions: 1 μM in 0.5% DMSO; 7 days; compared with medium supplemented with BDNF
Experimental: Primary cultures of striatal neurons are prepared as described in the literature (Primary striatal neuronal culture, Mao L. et al., Methods Mol. Med., 2003, 79:379-86). […] A second expression vector containing the DNA coding the green fluorescent protein (GFP) also undergoes electroporation and serves as a reporter gene. The DNA of the plasmid coding the huntingtin was prepared by purification with cesium chloride. The plasmid containing the GFP sequence was prepared on Qiagen columns. The integrity of the DNA sequences is verified by sequencing, transfection and western blotting. The cells which survive the electroporation are inoculated at a density of 4000 cells per well of a 96-well plate. The culture takes place in Neurobasal medium (GIBCO) complimented with pyruvate and B-27 (Beckton Dickinson). The cells are maintained in culture for 7 days without changing the medium.
The treatments with the compounds to be tested are carried out just after the inoculation at a final concentration of 1 μM in 0.5% of dimethyl sulphoxide (DMSO). The positive controls are carried out by the addition of BDNF at 5 ng/ml final. The negative controls only receive 0.5% DMSO.
Cell death is evaluated after the 7 days by counting the number of living cells expressing the GFP.
The activity of the compounds to be tested was evaluated by their capacity to prevent the death of the striatal neurons cultured in the neurobasal medium compared with the survival of the striatal neurons in medium supplemented with BDNF (Brain-Derived Neurotrophic Factor).

GABAA receptors = assay: electrophysiology in vitro with rat neurons (slices of hippocampus on MEA, sensitive neurons in patch clamp); assay type: cell-based; conditions: for effect on the stimulating GABAA transmission (postsynaptic field potentials, CA1): slices of hippocampus, 20 μM bicuculline, 50 μM picrotoxin, 1-10 μM diazepam, 10-1000 nM steroids
Experimental: Electrophysiological experiments were carried out in vitro with rat neurons (slices of hippocampus, neurons sensitive in culture), as follows:
The experiments are carried out with hippocampi removed from rats of the Sprague Dawley strain aged from 10 to 21 days. The animals are sacrificed by decapitation, and their brain is rapidly transferred into ACSF (Artificial Cerebro-Spinal Fluid) without sodium (composition: 2 mM KCl, 1.2 mM NaH2PO4, 2 mM MgCl2, 0.5 mM CaCl2, 26 mM NaHCO3, 11 mM glucose, 250 mM saccharose), maintained at a temperature of 4° C. and carbogen (a 95% O2, 5% CO2 mixture) is bubbled through. The hippocampi are extracted from each cerebral hemisphere then cut up into slices of […] thickness using a “tissue chopper”. The slices are left to rest in ACSF medium (composition: 126 mM NaCl, 2 mM KCl, 1.2 mM NaH2PO4, 2 mM MgCl2, 0.5 mM CaCl2, 26 mM NaHCO3, 11 mM glucose) at ambient temperature, at least one hour before recording. Using a pipette, one slice is then deposited on a multi-electrode recording system (MEA, MultiChannel Systems™, Germany) and positioned so as to cover the […]. In order to avoid any change in position by the perfusion flow, a grid weighted down by a platinum <<U>> is positioned on the slice. The MEA is then rapidly inserted into the recording system and the chamber perfused with ACSF with carbogen bubbled through; the middle of the chamber is connected to earth. The perfused ACSF as well as the MEA are maintained at a temperature of 37° C. One of the 60 electrodes is selected as a stimulation electrode. A biphasic stimulation current with an intensity of 300 μA over 0.1 ms is generated from this electrode at a rate of one stimulation every 30 seconds. The responses produced are seen simultaneously at the level of the 59 other electrodes of the MEA. The axons of the Schaeffer collaterals are stimulated in the CA3. In the CA1 region, 6 to 12 electrodes are selected in order to record the field potentials which correspond to the sum of the variations of the postsynaptic potentials of the neurons situated close to each electrode. The molecules tested are dissolved in the ACSF medium (the final concentration of DMSO is ≦0.1%) and carried over onto the slice by means of the perfusion system.
The sensitive rat neurons are cultured for 1 to 2 days and then recorded with the patch clamp technique as described in De Roo M. et al. (Dehydroepiandrosterone potentiates native ionotropic ATP receptors containing the P2X2 subunit in rat sensory neurones, J Physiol, 2003, 552:59-71).

CC(C)CCC[C@@H](C)[C@H]1CC[C@H]2[C@@H]3CCC4=CC(=NO)CC[C@]4(C)[C@H]3CC[C@]12C [Compound 1, Cholest-4-en-3-one oxime]
increase of survival of the motor neurons of the nucleus of the facial nerve [1]: up to 40% | Ratio (survival rate of the motor neurons) (rat motor neurons; 5 μM): 1 | toxicity [2]: did not show significant toxicity | Ratio (survival of striatal neurons) [3]: 0.3 | blocking of the effect of positive allosteric modulators of the GABAA receptors (GABAA receptors; allopregnanolone or tetrahydrodeoxycorticosterone as modulators, dose-dependent, concentrations equivalent to those with neurotrophic effects in vitro): capable of blocking | effect on the GABAA receptors, compound alone (GABAA receptors; tested alone up to 10 μM, slice of hippocampus or sensitive neurons): no effect

CC(C)CCC[C@@H](C)[C@H]1CC[C@H]2[C@@H]3CCC4=CC(=NO)C=C[C@]4(C)[C@H]3CC[C@]12C [Compound 2, 1,4-cholestadien-3-one oxime]
Ratio (survival rate of the motor neurons) (rat motor neurons; 5 μM): 0.6

CC(C)=CCC[C@@H](C)[C@H]1CC[C@H]2[C@@H]3CCC4=CC(=O)CC[C@]4(C)[C@H]3CC[C@]12C [Compound 4, Cholest-4,24-dien-3-one]
Ratio (survival of striatal neurons) [3]: 0.2

CC(C)=CCC[C@@H](C)[C@H]1CC[C@H]2[C@@H]3CCC4=CC(=NO)CC[C@]4(C)[C@H]3CC[C@]12C [Compound 6, 4,24-cholestadien-3-one oxime]
Ratio (survival rate of the motor neurons) (rat motor neurons; 5 μM): 0.5

CC(C)CC=C[C@@H](C)[C@H]1CC[C@H]2[C@@H]3CCC4=CC(=NO)CC[C@]4(C)[C@H]3CC[C@]12C [Compound 7, 4,22-cholestadien-3-one oxime]
Ratio (survival rate of the motor neurons) (rat motor neurons; 6 μM): 0.25

CC[C@H](CC[C@@H](C)[C@H]1CC[C@H]2[C@@H]3CCC4=CC(=NO)CC[C@]4(C)[C@H]3CC[C@]12C)C(C)C [Compound 8, 4-stigmasta-ene-3-one oxime]
Ratio (survival rate of the motor neurons) (rat motor neurons; 10 μM): 0.3

CC(C)CCC[C@@H](C)[C@H]1CC[C@H]2[C@@H]3CC[C@]4(O)CC(=O)CC[C@]4(C)[C@H]3CC[C@]12C [Compound 9, 5-beta-hydroxy-cholestan-3-one]
Ratio (survival rate of the motor neurons) (rat motor neurons; 1 μM): 0.5 | Ratio (survival of striatal neurons) [3]: 0.5

CC(C)CCC[C@@H](C)[C@H]1CC[C@H]2[C@@H]3C=C[C@H]4CC(=O)CC[C@]4(C)[C@H]3CC[C@]12C [Compound 11, 5-alpha-cholest-6-en-3-one]
Ratio (survival of striatal neurons) [3]: 0.3

CC(C)C(C)C=C[C@@H](C)[C@H]1CC[C@H]2[C@@H]3C=CC4=CC(=O)CC[C@]4(C)[C@H]3CC[C@]12C (stereo partly shown) [Compound 12, 24-methylcholest-4,6,22-trien-3-one]
Ratio (survival of striatal neurons) [3]: 0.3

CC(C)[C@@H](C)C=C[C@@H](C)[C@H]1CC[C@H]2[C@@H]3C=CC4=CC(=NO)CC[C@]4(C)[C@H]3CC[C@]12C [Compound 15, 4.6, 22-ergosta-trien-3-one oxime]
Ratio (survival rate of the motor neurons) (rat motor neurons; 5 μM): 0.2

CC(C)CCC[C@@H](C)[C@H]1CC[C@H]2[C@@H]3C=CC4=CC(=NO)C=C[C@]4(C)[C@H]3CC[C@]12C [Compound 17, 1.4,6-cholesta-trien-3-one oxime]
Ratio (survival rate of the motor neurons) (rat motor neurons; 5 μM): 0.3

CC(=O)[C@H]1CC[C@H]2[C@@H]3CC[C@H]4C[C@H](O)CC[C@]4(C)[C@H]3CC[C@]12C [allopregnanolone, 3α-hydroxy-5α-pregnan-20-one]
effect on chlorine currents produced by isoguvacine (GABAA receptors; sensitive neurons, patch-clamp): potentialized | effect on the stimulating GABAA transmission (postsynaptic field potentials, CA1) (GABAA receptors): potentialized

CN1C(=O)CN=C(c2ccccc2)c2cc(Cl)ccc21 [diazepam]
effect on the stimulating GABAA transmission (postsynaptic field potentials, CA1) (GABAA receptors): potentialized

C[C@]12CC[C@@H](O)C[C@@H]1CC[C@@H]1[C@@H]2CC[C@]2(C)[C@@H](C(=O)CO)CC[C@@H]12 [tetrahydrodeoxycorticosterone]
effect on the stimulating GABAA transmission (postsynaptic field potentials, CA1) (GABAA receptors): potentialized

picrotoxin
effect on the stimulating GABAA transmission (postsynaptic field potentials, CA1) (GABAA receptors): blocked

Source: patent US8354395B2, “Method for providing neuroprotection from spinal muscular atrophy” (Trophos, priority 2003, dated 2013)
